In PMC10975828, “Screening for Active Compounds of Acorus calamus against SARS-CoV-2 Viral Protease and Mechanism Prediction” (Pharmaceuticals, 2024):
Like-named read-outs stand apart in the source and are kept apart here.

Tests used:
SARS-CoV-2 Mpro = SARS-CoV-2 Mpro (Severe acute respiratory syndrome coronavirus 2, UniProt P0DTD1); experiment: SARS-CoV-2 Mpro inhibition assay (fluorescence, 96-well); type: biochemical; details: for percent inhibition at 5 µM: read-out: Inhibition at 5 μM (%); for IC50: Mpro 1 µM, inhibitor 0–20 µM, substrate 20 µM; for enzyme activity: at a concentration of 5 μM
SARS-CoV-2 PLpro = SARS-CoV-2 PLpro (Severe acute respiratory syndrome coronavirus 2, UniProt P0DTD1); experiment: SARS-CoV-2 PLpro inhibition assay (fluorescence, 96-well); type: biochemical; details: for percent inhibition of PLpro at 5 µM: read-out: Inhibition at 5 μM (%); for enzyme activity: 5 μM screening
PC12 cell = system: PC12 cell; set-up: method as in PMID 28695650; details: previous studies; cited from earlier work
[1] = Mpro, inhibitor 5 μM, substrate 1 μM, triplicate, 25 °C
[2] = PLpro 1 µM, inhibitor 0–20 µM, substrate 20 µM, read-out: IC50
[3] = PLpro, inhibitor 5 μM, substrate 1 μM, triplicate, 25 °C

For CC(C)C1CCC2(C)C(O)CCC(C)(O)C2C1O (stereo not shown) [Compound 17, ananosmin], the percent inhibition at 5 µM (SARS-CoV-2 Mpro) was 74.6 ± 5.21% and the percent inhibition of PLpro at 5 µM (SARS-CoV-2 PLpro) was 29.8 ± 1.54%.
With CC(=O)CC[C@@]12CC(=O)O[C@]1(C(C)C)C(=O)C[C@@H]2C [Compound 18, neo-acorane A] the IC50 (SARS-CoV-2 Mpro) was 630 ± 364 nM, the enzyme activity (SARS-CoV-2 Mpro; Mpro) was “less than 50%” and the percent inhibition at 5 µM (SARS-CoV-2 Mpro; [1]) was 31 ± 1.26%. It also gave an IC50 (SARS-CoV-2 PLpro; [2]) of 1890 ± 375 nM and a percent inhibition of PLpro at 5 µM (SARS-CoV-2 PLpro; [3]) of 31.7 ± 8.07%.
In the case of CC1(O)CCC2C(C3C1CCC3(C)O)C2(C)C (single isomer, unassigned; (-)) [Compound 5, (-)-alloaromadendrane-3β,9β-diol], the percent inhibition at 5 µM (SARS-CoV-2 Mpro) is reported as 78.33 ± 0.25% and the percent inhibition of PLpro at 5 µM (SARS-CoV-2 PLpro) is reported as 14.4 ± 0.88%.
With C=C1CC[C@@H]2[C@](C)(O)[C@H](O)C[C@H](C(C)C)[C@@]2(O)C1 [Compound 9, calamentriol A] the percent inhibition at 5 µM (SARS-CoV-2 Mpro) was 82.9 ± 7.31% and the percent inhibition of PLpro at 5 µM (SARS-CoV-2 PLpro) was 22.3 ± 4.83%.
calamusin H [Compound 8] showed a percent inhibition (SARS-CoV-2 Mpro; [1]) of 81.7 ± 6.15% and a percent inhibition of PLpro at 5 µM (SARS-CoV-2 PLpro; [3]) of 14.2 ± 0.93%.
Work on CC(C)C1=CC[C@@]2(C)[C@H](O)CC[C@](C)(O)[C@@H]2C1 [Compound 16, oplodiol] yielded a percent inhibition at 5 µM (SARS-CoV-2 Mpro) of 78.2 ± 12.9% and a percent inhibition of PLpro at 5 µM (SARS-CoV-2 PLpro) of 33.6 ± 2.46%.
For CC(C)[C@H]1CC[C@](C)(O)[C@H]2CC[C@@](O)(CO)C[C@]12O [Compound 12, calamentriol C], the percent inhibition at 5 µM (SARS-CoV-2 Mpro) was 70.9 ± 1.17% and the percent inhibition of PLpro at 5 µM (SARS-CoV-2 PLpro) was 25.8 ± 2.25%.
For CC(C)(O)C[C@H]1CC[C@@]2(C)[C@H](O)CC[C@](C)(O)[C@H]12 [Compound 22, bullatantriol], the percent inhibition at 5 µM (SARS-CoV-2 Mpro; [1]) was 82.8 ± 1.58%, the IC50 (SARS-CoV-2 PLpro; [2]) was 1260 ± 321 nM and the enzyme activity (SARS-CoV-2 PLpro; PLpro) was “below 10%”. It also gave a percent inhibition of PLpro at 5 µM (SARS-CoV-2 PLpro; [3]) of 10.6 ± 2.59%.
CC1=C[C@H]2[C@@H](C(C)C)CC[C@@](C)(O)[C@]2(O)[C@@H](O)C1 [Compound 14, calamentriol D] showed a percent inhibition at 5 µM (SARS-CoV-2 Mpro) of 81.9 ± 1.31% and a percent inhibition of PLpro at 5 µM (SARS-CoV-2 PLpro) of 25.4 ± 1.43%.
In the case of CC(C)C1CCC(C)(O)C2CCC(C)(O)C2C1=O [Compound 1, 1R,5R,7S-guaiane-4R,10R-diol-6-one], the percent inhibition at 5 µM (SARS-CoV-2 Mpro; [1]) is reported as 83.61 ± 0.01%, the enzyme activity (SARS-CoV-2 PLpro; PLpro) is reported as “below 10%” and the percent inhibition of PLpro at 5 µM (SARS-CoV-2 PLpro; [3]) is reported as 6.41 ± 0.43%.
In the case of CC(C)C(=O)[C@@]1([C@H](C)CC(=O)O)CC[C@@H](C)C(=O)C1 [Compound 19, acoric acid], the percent inhibition at 5 µM (SARS-CoV-2 Mpro; [1]) is reported as 75.55 ± 0.24%, the IC50 (SARS-CoV-2 PLpro; [2]) is reported as 1450 ± 429 nM and the enzyme activity (SARS-CoV-2 PLpro; PLpro) is reported as “below 10%”. The percent inhibition of PLpro at 5 µM (SARS-CoV-2 PLpro; [3]) was 7.9 ± 1.94%.
CC1=CCC(C(C)C)C(O)C2C1CCC2(C)O (stereo not drawn) [Compound 2, 4β,6β-dihydroxy-1α,5β(H)-guai-9-ene] showed a percent inhibition at 5 µM (SARS-CoV-2 Mpro) of 85.9 ± 0.61% and a percent inhibition of PLpro at 5 µM (SARS-CoV-2 PLpro) of 14 ± 1.95%.
Molecule CC(C)[C@@H]1CCC(=O)C2=C1[C@H](O)[C@](C)(O)CC2 [Compound 15, oxyphyllenodiols A] has a percent inhibition at 5 µM (SARS-CoV-2 Mpro) of 79.3 ± 10.4% and a percent inhibition of PLpro at 5 µM (SARS-CoV-2 PLpro) of 35.3 ± 2.35%.
CC1CC(=O)C(O)(C(C)C)C12CCC(C)(O)C(=O)C2 (stereo not shown) [Compound 20, calamusin D] gave a percent inhibition at 5 µM (SARS-CoV-2 Mpro) of 79.7 ± 8.49% and a percent inhibition of PLpro at 5 µM (SARS-CoV-2 PLpro) of 22.2 ± 3.58%.
In the case of CC(C)[C@@H]1CC[C@](C)(O)[C@@H]2CC[C@](C)(O)C[C@]21O [Compound 11, calamentriol B], the percent inhibition at 5 µM (SARS-CoV-2 Mpro) is reported as 80.5 ± 4.82% and the percent inhibition of PLpro at 5 µM (SARS-CoV-2 PLpro) is reported as 38.4 ± 7.04%.
In the case of C=C1CC[C@@H]2[C@@](O)(C1)[C@H](C(C)C)CC[C@@]2(C)O [Compound 6, isocalamendiol], the percent inhibition at 5 µM (SARS-CoV-2 Mpro; [1]) is reported as 80.31 ± 0.79%, the IC50 (SARS-CoV-2 PLpro; [2]) is reported as 1670 ± 496 nM and the enzyme activity (SARS-CoV-2 PLpro; PLpro) is reported as “below 10%”. The percent inhibition of PLpro at 5 µM (SARS-CoV-2 PLpro; [3]) was 6.89 ± 1.65%.
With CC(=O)C1CCC2C1C(C(C)C)CCC2(C)O (stereo not shown) [Compound 21, oplopanone A] the percent inhibition at 5 µM (SARS-CoV-2 Mpro) was 83.3 ± 4.06% and the percent inhibition of PLpro at 5 µM (SARS-CoV-2 PLpro) was 33.9 ± 5.49%.
CC(C)C1CCC(C)(O)C2CCC(C)(O)C2C1O (stereo not shown) [Compound 4, teuclatriol] gave a percent inhibition at 5 µM (SARS-CoV-2 Mpro) of 87.19 ± 0.31% and a percent inhibition of PLpro at 5 µM (SARS-CoV-2 PLpro) of 11.8 ± 1.99%.
CC1=CC[C@H]2[C@](O)(C1)[C@@H](C(C)C)CC[C@@]2(C)O [Compound 10, 1β,7β(H)-3-cadinadiene-6α,10α-diol] gave a percent inhibition at 5 µM (SARS-CoV-2 Mpro) of 85.6 ± 0.88% and a percent inhibition of PLpro at 5 µM (SARS-CoV-2 PLpro) of 26.6 ± 3.38%.
In the case of CC(C)C1CCC(C)(O)C2=C1C(=O)C(C)(O)CC2O (stereo not shown) [Compound 13, menecubebane B], the IC50 (SARS-CoV-2 Mpro) is reported as 1720 ± 394 nM, the enzyme activity (SARS-CoV-2 Mpro; Mpro) is reported as “less than 50%” and the percent inhibition at 5 µM (SARS-CoV-2 Mpro; [1]) is reported as 41.1 ± 8.77%. The IC50 (SARS-CoV-2 PLpro; [2]) was 2530 ± 885 nM and the percent inhibition of PLpro at 5 µM (SARS-CoV-2 PLpro; [3]) was 24.9 ± 4.91%.
In the case of C=C1CCC(C(C)C)C(O)C2C1CCC2(C)O (stereo not drawn) [Compound 3, 4β,6β-dihydroxy-1α,5β(H)-guai-10(14)-ene], the percent inhibition at 5 µM (SARS-CoV-2 Mpro) is reported as 74.7 ± 0.05% and the percent inhibition of PLpro at 5 µM (SARS-CoV-2 PLpro) is reported as 11.3 ± 0.55%.
With COc1cc(OC)c(OC)cc1C=O [Compound 24, 2,4,5-trimethoxybenzaldehyde] the percent inhibition at 5 µM (SARS-CoV-2 Mpro) was 68.9 ± 0.71%, the IC50 (SARS-CoV-2 PLpro) was 3920 ± 1290 nM and the enzyme activity (SARS-CoV-2 PLpro; PLpro) was “below 10%”. It also gave a percent inhibition of PLpro at 5 µM (SARS-CoV-2 PLpro) of 9.54 ± 0.61%.
Work on CC(C)C1CCC(C)(O)C2CCC(C)(O)C2C1=O [1R,5R,7S-guaiane-4R,10R-diol-6-one] yielded an IC50 (SARS-CoV-2 PLpro; [2]) of 386 ± 118 nM.
In the case of COc1cc2ccnc3c2c(c1O)-c1c-3cccc(OC)c1=O [Compound 23, neo-tatarine], the percent inhibition at 5 µM (SARS-CoV-2 Mpro; [1]) is reported as 81.5 ± 3.65%, the IC50 (SARS-CoV-2 PLpro; [2]) is reported as 743 ± 187 nM and the enzyme activity (SARS-CoV-2 PLpro; PLpro) is reported as “below 10%”. For the same molecule, the percent inhibition of PLpro at 5 µM (SARS-CoV-2 PLpro; [3]) was 6.71 ± 3.23% and the “inhibitory effect on Aβ25-35-induced PC12 cell death” value (PC12 cell) was “significant inhibitory effect”.
In the case of C=C1CC[C@@H]2[C@@](O)(C1)[C@H](C(C)C)CC[C@]2(C)O [Compound 7, calamendiol], the percent inhibition at 5 µM (SARS-CoV-2 Mpro; [1]) is reported as 78.58 ± 0.67% and the percent inhibition of PLpro at 5 µM (SARS-CoV-2 PLpro; [3]) is reported as 20.1 ± 2.96%.
